# Assay results reported in PubChem BioAssay (NCI).
#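 GI50: concentration for 50% inhibition of growth. TGI is the concentration that stops growth completely.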
# Experiments:
# Assay in all cases: NCI tumour cell line growth inhibition, 384-well format
# [1] = tested on: HOP-92 NSCLC
# [2] = tested on: MOLT-4 leukemia
# [3] = tested on: SR leukemia
# [4] = tested on: HT29 colon
# [5] = tested on: OVCAR-8 ovarian
# [6] = tested on: BT-549 breast
# [7] = tested on: HCC-2998 colon
# [8] = tested on: T-47D breast
# [9] = tested on: SN12C renal
# [10] = tested on: OVCAR-5 ovarian
# [11] = tested on: MDA-MB-468 breast
# [12] = tested on: SK-OV-3 ovarian
# [13] = tested on: SF-295 CNS
# [14] = tested on: SK-MEL-28 melanoma
# [15] = tested on: OVCAR-4 ovarian
# [16] = tested on: RXF 393 renal
# [17] = tested on: U251 glioblastoma
# [18] = tested on: RPMI-8226 leukemia
# [19] = tested on: NCI-H322M lung
# [20] = tested on: 786-0 renal
# [21] = tested on: HCT-15 colon
# [22] = tested on: MDA-MB-435 melanoma
# [23] = tested on: SF-539 CNS
# [24] = tested on: HL-60(TB) leukemia
# [25] = tested on: SK-MEL-5 melanoma
# [26] = tested on: A498 renal
# [27] = tested on: SW-620 colon
# [28] = tested on: UACC-257 melanoma
# [29] = tested on: CCRF-CEM leukemia
# [30] = tested on: DU-145 prostate
# [31] = tested on: SNB-19 CNS
# [32] = tested on: NCI-H522 lung
# [33] = tested on: M14 melanoma
# [34] = tested on: PC-3 prostate
# [35] = tested on: NCI/ADR-RES ovarian
# [36] = tested on: MDA-MB-231 breast
# [37] = tested on: EKVX NSCLC
# [38] = tested on: ACHN renal
# [39] = tested on: OVCAR-3 ovarian
# [40] = tested on: MALME-3M melanoma
# [41] = tested on: K-562 leukemia
# [42] = tested on: A549 NSCLC
# [43] = tested on: COLO 205 colon
# [44] = tested on: NCI-H226 lung
# [45] = tested on: NCI-H460 NSCLC
# [46] = tested on: SF-268 CNS
# [47] = tested on: LOX IMVI melanoma
# [48] = tested on: SNB-75 CNS
# [49] = tested on: HOP-62 NSCLC
# [50] = tested on: HS 578T breast
# [51] = tested on: UO-31 renal
# [52] = tested on: NCI-H23 lung
smiles,measurement,setting,value
CC(C)[C@]12O[C@H]1[C@@H]1O[C@]13[C@]1(O[C@H]1C[C@H]1C4=C(CC[C@@]13C)C(=O)OC4)[C@@H]2O,GI50,[1],0.0123 µM
same,TGI,[1],0.0477 µM
same,GI50,[2],< 0.01 µM
same,TGI,[2],< 0.01 µM
same,GI50,[3],< 0.01 µM
same,TGI,[3],< 0.01 µM
same,GI50,[4],0.0111 µM
same,TGI,[4],> 100 µM
same,GI50,[5],0.0106 µM
same,TGI,[5],0.0366 µM
same,GI50,[6],< 0.01 µM
same,TGI,[6],< 0.01 µM
same,GI50,[7],0.0137 µM
same,TGI,[7],0.0313 µM
same,GI50,[8],< 0.01 µM
same,TGI,[8],0.037 µM
same,GI50,[9],< 0.01 µM
same,TGI,[9],0.0124 µM
same,GI50,[10],< 0.01 µM
same,TGI,[10],> 100 µM
same,GI50,[11],< 0.01 µM
same,TGI,[11],0.0208 µM
same,GI50,[12],< 0.01 µM
same,TGI,[12],0.0365 µM
same,GI50,[13],< 0.01 µM
same,TGI,[13],0.0213 µM
same,GI50,[14],< 0.01 µM
same,TGI,[14],< 0.01 µM
same,GI50,[15],< 0.01 µM
same,TGI,[15],< 0.01 µM
same,GI50,[16],< 0.01 µM
same,TGI,[16],< 0.01 µM
same,GI50,[17],0.0113 µM
same,TGI,[17],0.066 µM
same,GI50,[18],< 0.01 µM
same,TGI,[18],< 0.01 µM
same,GI50,[19],0.0108 µM
same,TGI,[19],0.0318 µM
same,GI50,[20],< 0.01 µM
same,TGI,[20],0.0177 µM
same,GI50,[21],< 0.01 µM
same,TGI,[21],0.0316 µM
same,GI50,[22],< 0.01 µM
same,TGI,[22],0.0181 µM
same,GI50,[23],< 0.01 µM
same,TGI,[23],0.0154 µM
same,GI50,[24],< 0.01 µM
same,TGI,[24],< 0.01 µM
same,GI50,[25],< 0.01 µM
same,TGI,[25],0.0122 µM
same,GI50,[26],< 0.01 µM
same,TGI,[26],0.0275 µM
same,GI50,[27],< 0.01 µM
same,TGI,[27],0.0333 µM
same,GI50,[28],< 0.01 µM
same,TGI,[28],0.0212 µM
same,GI50,[29],< 0.01 µM
same,TGI,[29],0.0157 µM
same,GI50,[30],< 0.01 µM
same,TGI,[30],< 0.01 µM
same,GI50,[31],0.0211 µM
same,TGI,[31],> 100 µM
same,GI50,[32],< 0.01 µM
same,TGI,[32],< 0.01 µM
same,GI50,[33],0.0117 µM
same,TGI,[33],0.0241 µM
same,GI50,[34],0.0123 µM
same,TGI,[34],0.052 µM
same,GI50,[35],< 0.01 µM
same,TGI,[35],0.0261 µM
same,GI50,[36],< 0.01 µM
same,TGI,[36],0.0217 µM
same,GI50,[37],0.01 µM
same,TGI,[37],0.0302 µM
same,GI50,[38],< 0.01 µM
same,TGI,[38],0.0324 µM
same,GI50,[39],< 0.01 µM
same,TGI,[39],0.0124 µM
same,GI50,[40],< 0.01 µM
same,TGI,[40],0.021 µM
same,GI50,[41],< 0.01 µM
same,TGI,[41],0.0188 µM
same,GI50,[42],0.015 µM
same,TGI,[42],> 100 µM
same,GI50,[43],< 0.01 µM
same,TGI,[43],0.0233 µM
same,GI50,[44],< 0.01 µM
same,TGI,[44],0.0123 µM
same,GI50,[45],< 0.01 µM
same,TGI,[45],< 0.01 µM
same,GI50,[46],0.0102 µM
same,TGI,[46],0.0277 µM
same,GI50,[47],< 0.01 µM
same,TGI,[47],< 0.01 µM
same,GI50,[48],< 0.01 µM
same,TGI,[48],0.0219 µM
same,GI50,[49],< 0.01 µM
same,TGI,[49],< 0.01 µM
same,GI50,[50],< 0.01 µM
same,TGI,[50],0.0184 µM
same,GI50,[51],0.0114 µM
same,TGI,[51],0.0513 µM
same,GI50,[52],< 0.01 µM
same,TGI,[52],< 0.01 µM
